From patent US20240309028A1, “PHOSPHOLIPID COMPOUNDS AND METHODS OF MAKING AND USING THE SAME” (Gilead Sciences, Inc., priority 2023, published 2024)

How the values were obtained:
Type in all cases: cell-based
[1] = test system: Human Rhinovirus 16 (HRV16); assay: H1-HeLa HRV-CTG EC50, HRV16; conditions: Rhinovirus A, 96 h; H1-HeLa cells, HRV16, MOI 0.25, 4 days, Celltiter-Glo; read-out: EC50 H1-HeLa_HRV16_HRV-CTG 384-well Assay (per Ex. Z)
Description: (§1) Example Z: H1-HeLa HRV-CTG EC50
(§2) H1-Hela cell line (ATCC, Manassas, VA, Cat #CRL-1958) was maintained in Dulbecco's […] Essential Medium (DMEM) (Corning, New York, NY, Cat #15-018 CM) supplemented with 10% fetal bovine serum (FBS) (Hyclone, Logan, UT, Cat #SH30071-03), and 1× Penicillin-Streptomycin-L-Glutamine (Corning, New York, NY, Cat #30-009-CI). Cells were passaged 2 times per week to maintain sub-confluent densities and were used for experiments at passage 5-30. The Human Rhinovirus 1B (HRVIB) (ATCC, Manassas, VA, Cat #VR-1645), Human Rhinovirus 14 (HRV14) (ATCC, Manassas, VA, Cat #VR-284), and Human Rhinovirus 16 (HRV16) (ATCC, Manassas, VA, Cat #BR-283) was obtained through ATCC. Viral infection was monitored by determining viability of H1-HeLa cells as described below.
(§3) Test molecules are prepared in 100% DMSO in 384-well polypropylene plates (Greiner, Monroe, NC, Cat #784201) with 8 compounds per plate in grouped replicates of 4 at 10 serially diluted concentrations (1:3). […]
(§4) The test compounds were spotted to 384-well assay plates (Greiner, Monroe, NC, Cat #781091) at 200 nL per well using an Echo acoustic dispenser (Labcyte, Sunnyvale, CA). […] 40 μL per well of Celltiter-Glo reagent was added and the plates were incubated at room temperature for 15 minutes before reading the luminescence signal on an En Vision multimode plate reader (Perkin Elmer, Waltham, MA). […]

RSV strain A2 = assay: RSV Cellomics assay for RSV A2 antiviral activity (EC50-RSV-Hep2-96-Cellomics); conditions: human respiratory syncytial virus, HEp-2, 72 h; Hep2 cells, RSV strain A2, MOI=0.05, 3 days, RSV F protein immunofluorescence; read-out: EC50-RSV-HEp2-96-Cellomics Example B1
Description: Example B1: RSV Cellomics Assay for RSV A2 Antiviral Activity (EC50-RSV-Hep2-96-Cellomics)
8×10^3 Hep2 cells are seeded into 96 well plates in 100 μL of media (DMEM supplemented with GlutaMAX, 10% FBS and Pen/Strep) and briefly spun at 50×g for 1 minute to attach cells. Cells were further allowed to attach with overnight incubation at 37° C.+5% CO2. The following day, the media was aspirated and 100 μL of fresh DMEM media containing 2% FBS was added. A three-fold dilution series of compounds of interest are then added to the plate using the Tecan D300e dispenser and the plate is normalized to the well with the highest volume of DMSO. The cells are next infected by adding 100 μL of media containing RSV strain A2 at an MOI=0.05 and the plates incubated for 3 days at 37° C.+5% CO2. Following the incubation, the media is removed, and the cells are washed once with 250 μL PBS and fixed with 250 μL ice-cold 100% methanol for 10 minutes at 4 C. The methanol is then removed and the plates air dried for 5 minutes and then washed once with 250 μL PBS to remove any residual methanol. The wells are then blocked 60 μL/well of BlockAid (B10710, Thermo-Fisher) for 1 hour at RT on rocker at which point the blocking buffer is carefully aspirated. Primary antibody against the RSV F protein (MAB 858-1) is then diluted 1:2000 in SuperBlock (37515, Thermo Fisher) and 50 μL of the primary antibody solution is added to each well. The plates are incubated at room temperature for 1 hour with gentle agitation and then washed with 250 μL of PBS-Tween 3 times. A goat anti-mouse AlexaFluor 647 conjugated secondary antibody (Sigma, A21235) is then diluted 1:2000 and Hoescht 33342 (H3570) at 1:1000 in SuperBlock and 50 μL added to the wells for 1 hour at 37° C. After incubation the antibody solution is aspirated, and the wells are then washed with 250 μL of PBS-Tween 3 times. To keep cells from drying out, 100 μL of PBS is added to each well and the plates are sealed with black plate seal. Fluorescence at the 647 nm wavelength is measured using a Cellomics CellInsight CX7 machine. Compound activity is determined as a percentage of the % positive cells (or average intensity) compared to DMSO treated RSV infected well controls following subtraction of uninfected controls. The EC50 values are then calculated using nonlinear regression analysis in GraphPad Prism.

[2] = test system: Human Rhinovirus 1B (HRVIB); assay: H1-HeLa HRV-CTG EC50, HRV1B; conditions: Rhinovirus A, 96 h, H1-HeLa cells, MOI 0.5, 4 days, Celltiter-Glo, read-out: EC50 H1-HeLa_HRV1B_HRV-CTG 384-well Assay (per Ex. Z)
Description: as §1, §2, §3, §4

| Compound | EC50 [1] | EC50 (RSV strain A2) | EC50 [2] |
| --- | --- | --- | --- |
| N#Cc1cc(F)cc(CO[C@H](CCCCCCCCCCCCCCCCCCC(F)(F)F)COP(=O)(O)OC[C@@]2(C#N)O[C@@H](c3ccc4c(N)ncnn34)[C@H](O)[C@@H]2O)c1 [Compound 2, ((2R,3S,4R,5S)-5-(4-aminopyrrolo[2,1-f][1,2,4]triazin-7-yl)-2-cyano-3,4-dihydroxytetrahydrofuran-2-yl)methyl ((R)-2-((3-cyano-5-fluorobenzyl)oxy)-21,21,21-trifluorohenicosyl) hydrogen phosphate] | 91 nM | 241 nM | 62 nM |
| N#Cc1cc(F)cc(CO[C@H](COCCCCCCCCCCCCCCCCCC(F)(F)F)COP(=O)(O)OC[C@@]2(C#N)O[C@@H](c3ccc4c(N)ncnn34)[C@H](O)[C@@H]2O)c1 [Compound 1, ((2R,3S,4R,5S)-5-(4-aminopyrrolo[2,1-f][1,2,4]triazin-7-yl)-2-cyano-3,4-dihydroxytetrahydrofuran-2-yl)methyl ((R)-2-((3-cyano-5-fluorobenzyl)oxy)-3-((18,18,18-trifluorooctadecyl)oxy)propyl) hydrogen phosphate] | 34 nM | 76 nM | 12 nM |
